Consider 19 molecules from US11999727B2 (Tango Therapeutics, Inc., priority 2020, dated 2024).

Counter-ions that a name gives are not always drawn. Like-named read-outs stand apart in the source and are kept apart here.

Experiment [1] has as its system HAP1 MTAP-intact cell line. Briefly: SDMA in-cell western assay, HAP1 MTAP-intact. Type of experiment: cell-based. The following applies: Homo sapiens. The source says:
(§1) Table 1 also indicates IC50 values in an MTAP-isogenic cell line pair for exemplary compounds in an SDMA in-cell western assay (columns 7-8). HAP1 MTAP-intact is a cell line in which endogenous levels of MTAP are expressed, and HAP1 MTAP-deleted is an MTAP-null cell line.

The test system of experiment [2] is HAP1 MTAP-deleted cell line. As to the kind of experiment: SDMA in-cell western assay, HAP1 MTAP-deleted. Type of experiment: cell-based. The following applies: for IC50: Homo sapiens; for MTAP intact/deleted ratio: IC50 ratio HAP1 MTAP-intact / HAP1 MTAP-deleted, SDMA in-cell western.
Description: as §1

The subject of experiment [3] is HAP1 MTAP-deleted cell line. Briefly: Viability assay, MTAP-deleted cell line. Type of experiment: cell-based. The following applies: Homo sapiens. The source says:
Table 1 additionally indicates IC50 values in a viability assay for the MTAP-deleted cell line (column 10), indicating the effect of treatment with compound on cell survival.

Experiment [4] deals with T1, PRMT5 (Homo sapiens, UniProt O14744).
T1 construct: purchased Viva (custom protein)
Briefly: PRMT5 biochemical IC50 assay with no cofactor. The following applies: PRMT5, no cofactor; read-out: No Cofactor/rel IC50. From the text:
Table 1 indicates IC50 values (μM) against PRMT5 for exemplary compounds in the presence of SAM as cofactor, with no cofactor, and with MTA as cofactor, respectively (columns 4-6). […] Ki values can be calculated from the IC50 values as described in the Examples section. As detailed in the Examples section, for the assay performed in the presence of SAM, IC50=Ki×1.5 (Ki=IC50/1.5).

Experiment [5] addresses T1, PRMT5. As to the kind of experiment: PRMT5 biochemical IC50 assay with SAM as cofactor. The following applies: PRMT5, SAM as cofactor; read-out: SAM IC50.
Experiment [6] deals with T1, PRMT5. As to the kind of experiment: PRMT5 biochemical IC50 assay with MTA as cofactor. Conditions: PRMT5, MTA as cofactor; read-out: MTA IC50.
[7] abbreviates: HAP1, read-out: MTAP HAP1 intact IC50.
Where [8] appears, read: HAP1, read-out: HAP1 MTAP deleted IC50.
The mark [9] stands for this setting: HAP1, read-out: HAP1 MTAP deleted viability.
Where [10] appears, read: HAP1, SDMA in-cell western, HAP1 MTAP-intact, read-out: MTAP HAP1 intact IC50.
Setting [11] is: HAP1, SDMA in-cell western, HAP1 MTAP-deleted, read-out: HAP 1 MTAP deleted IC50.
The mark [12] stands for this setting: HAP1, viability IC50, MTAP-deleted cell line, read-out: HAP1 MTAP deleted viability.

T1 sequence (O14744 whole entry): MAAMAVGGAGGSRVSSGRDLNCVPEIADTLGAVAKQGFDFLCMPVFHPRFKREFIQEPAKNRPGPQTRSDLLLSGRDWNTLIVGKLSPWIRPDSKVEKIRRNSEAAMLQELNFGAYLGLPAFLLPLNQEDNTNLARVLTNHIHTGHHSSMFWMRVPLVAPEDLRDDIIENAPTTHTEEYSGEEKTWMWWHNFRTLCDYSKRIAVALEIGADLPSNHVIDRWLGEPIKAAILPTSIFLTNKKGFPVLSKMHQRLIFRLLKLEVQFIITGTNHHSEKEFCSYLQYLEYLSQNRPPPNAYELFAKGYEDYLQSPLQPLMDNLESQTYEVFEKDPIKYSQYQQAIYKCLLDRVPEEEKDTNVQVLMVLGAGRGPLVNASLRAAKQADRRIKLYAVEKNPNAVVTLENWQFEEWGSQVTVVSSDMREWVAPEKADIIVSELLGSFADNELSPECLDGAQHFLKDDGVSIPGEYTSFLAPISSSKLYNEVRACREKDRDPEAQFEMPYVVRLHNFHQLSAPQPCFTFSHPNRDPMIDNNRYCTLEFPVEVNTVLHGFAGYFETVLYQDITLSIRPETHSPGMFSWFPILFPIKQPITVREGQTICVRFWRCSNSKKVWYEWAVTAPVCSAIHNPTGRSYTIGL
T1 sequence (Q9BQA1 whole entry partner): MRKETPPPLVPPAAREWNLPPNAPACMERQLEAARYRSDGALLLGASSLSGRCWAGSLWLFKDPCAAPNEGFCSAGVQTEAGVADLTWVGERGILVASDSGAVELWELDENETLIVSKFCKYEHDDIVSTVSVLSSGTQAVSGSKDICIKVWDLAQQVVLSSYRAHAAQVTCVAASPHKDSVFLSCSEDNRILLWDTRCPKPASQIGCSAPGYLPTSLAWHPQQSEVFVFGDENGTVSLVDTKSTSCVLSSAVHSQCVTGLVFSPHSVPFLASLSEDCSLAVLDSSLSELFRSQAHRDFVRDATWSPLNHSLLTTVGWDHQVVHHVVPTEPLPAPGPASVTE

For the molecule `Cc1cc(NC(=O)C(=O)N2CC(C)CCC2c2ccccc2)cnc1N` (mixture of isomers) [Compound 27, N-(6-Amino-5-methyl-3-pyridyl)-2-(5-methyl-2-phenyl-1-piperidyl)-2-oxo-acetamide], the IC50 in experiment [1] (setting [7]) was over 1 µM; in experiment [2] (setting [8]) it was under 0.1 µM; in experiment [3] (setting [9]) it was 1 to 10 µM.
In the case of `Cc1cncc(NC(=O)C(=O)N2[C@H](c3ccccc3)CC[C@@H](C)[C@@H]2C)c1` (racemic) [Compound 23, rac-2-[(2S,3R,6S)-2,3-dimethyl-6-phenyl-1-piperidyl]-N-(5-methyl-3-pyridyl)-2-oxo-acetamide], the IC50 was over 1 µM in experiment [1] (setting [7]), over 1 µM in experiment [2] (setting [8]) and over 10 µM in experiment [3] (setting [9]).
For the molecule `Cc1cc(NC(=O)C(=O)N2C[C@H](C)CC[C@H]2c2ccc(O)cc2)cnc1N` (racemic) [Compound 164, rac-N-(6-amino-5-methylpyridin-3-yl)-2-((2R,5S)-2-(4-hydroxyphenyl)-5-methylpiperidin-1-yl)-2-oxoacetamide], the IC50 is 0.1 to 1 µM in experiment [1] (setting [7]), under 0.1 µM in experiment [2] (setting [8]) and under 1 µM in experiment [3] (setting [9]).
Regarding `Cc1cc(NC(=O)C(=O)N2C[C@H](C)CC[C@H]2c2ccc3c(c2)CC(=O)N3)cnc1N` (racemic) [Compound 373, N-(6-amino-5-methyl-3-pyridyl)-2-[5-methyl-2-(2-oxoindolin-5-yl)-1-piperidyl]-2-oxo-acetamide], the values for the IC50 in experiment [1] (setting [7]), in experiment [2] (setting [8]) and in experiment [3] (setting [9]) were 0.1 to 1 µM, under 0.1 µM and under 1 µM, respectively.
Turning to `Cc1cc(NC(=O)C(=O)N2C[C@H](C)CC[C@@H]2c2ccc(-c3ccn[nH]3)s2)cnc1N` (racemic) [Compound 577, N-(6-amino-5-methyl-3-pyridyl)-2-[(2R,5R)-5-methyl-2-[5-(1H-pyrazol-5-yl)-2-thienyl]-1-piperidyl]-2-oxo-acetamide], the IC50 in experiment [1] (setting [10]) and in experiment [2] (setting [11]) was over 1 µM in each case. Also, the MTAP intact/deleted ratio entry in experiment [2] is “B (an IC50 ratio greater than or equal to 3 fold but lower than 10 fold)”.
Take `Cc1cc(NC(=O)C(=O)N2C[C@H](C)CC[C@@H]2c2ccc3c(c2)CCC(=O)N3)cnc1N` (racemic) [Compound 583, N-(6-Amino-5-methyl-3-pyridyl)-2-[(2R,5R)-5-methyl-2-(2-oxo-3,4-dihydro-1H-quinolin-6-yl)-1-piperidyl]-2-oxo-acetamide]: the IC50 in experiment [1] (setting [7]) was under 0.1 µM; in experiment [2] (setting [8]), under 0.1 µM; in experiment [3] (setting [9]), under 1 µM.
`Cc1cc(NC(=O)C(=O)N2C[C@H](C)CC[C@H]2c2ccc3cnccc3c2)cnc1N` (racemic) [Compound 758, N-(6-Amino-5-methyl-3-pyridyl)-2-[2-(6-isoquinolyl)-5-methyl-1-piperidyl]-2-oxo-acetamide]: the IC50 in experiment [1] (setting [7]) is 0.1 to 1 µM; in experiment [2] (setting [8]), under 0.1 µM; in experiment [3] (setting [9]), under 1 µM.
Take `[2H][C@]1(c2ccc(F)cc2)CC[C@H](C)CN1C(=O)C(=O)Nc1cnc(N)c(C)c1` (racemic) [Compound 1009, N-(6-amino-5-methylpyridin-3-yl)-2-(2-(4-fluorophenyl)-5-methylpiperidin-1-yl-2-d)-2-oxoacetamide hydrochloride]: the IC50 was 0.1 to 1 µM in experiment [1] (setting [7]), under 0.1 µM in experiment [2] (setting [8]) and 1 to 10 µM in experiment [3] (setting [9]).
Turning to `Cc1cc(NC(=O)C(=O)N2C[C@H](C)CC[C@H]2c2ccc3sc(CN(C)C)nc3c2)cnc1N` (racemic) [Compound 1106, N-(6-amino-5-methylpyridin-3-yl)-2-(2-(2-((dimethylamino)methyl)benzo[d]thiazol-5-yl)-5-methylpiperidin-1-yl)-2-oxoacetamide], the values for the IC50 in experiment [1] (setting [7]), in experiment [2] (setting [8]) and in experiment [3] (setting [9]) were under 0.1 µM, under 0.1 µM and under 1 µM, respectively.
`C[C@H]1CC[C@H](c2ccc(N)cn2)N(C(=O)C(=O)Nc2cncc(C(N)=O)c2)C1` (relative stereo) [Compound 594, 5-[[2-[(2R,5S)-2-(5-amino-2-pyridyl)-5-methyl-1-piperidyl]-2-oxo-acetyl]amino]pyridine-3-carboxamide]: the results for the IC50 in experiment [1] (setting [10]), in experiment [2] (setting [11]) and in experiment [3] (setting [12]) were over 1 µM, over 1 µM and over 10 µM, respectively. Besides, the MTAP intact/deleted ratio entry in experiment [2] is reported as “B (an IC50 ratio greater than or equal to 3 fold but lower than 10 fold)”.
In the case of `COc1ncc(NC(=O)C(=O)N2C[C@H](C)CC[C@H]2c2ccc3sccc3c2)cc1C(N)=O` (relative stereo) [Compound 633, 5-[[2-[(2S,5R)-2-(benzothiophen-5-yl)-5-methyl-1-piperidyl]-2-oxo-acetyl]amino]-2-methoxy-pyridine-3-carboxamide], the IC50 in experiment [1] (setting [10]) is over 1 µM; in experiment [2] (setting [11]) it was over 1 µM; in experiment [3] (setting [12]) it was over 10 µM. Moreover, the MTAP intact/deleted ratio entry in experiment [2] is given as “C (an IC50 ratio of less than 3 fold)”.
For the molecule `Cc1cc([C@H]2CC[C@H](C)CN2C(=O)C(=O)Nc2cncc(C(N)=O)c2)cc2cn[nH]c12` (relative stereo) [Compound 638, 5-[[2-[(2R,5S)-5-methyl-2-(7-methyl-1H-indazol-5-yl)-1-piperidyl]-2-oxo-acetyl]amino]pyridine-3-carboxamide], the IC50 in experiment [1] (setting [10]) was over 1 µM; in experiment [2] (setting [11]) it was under 0.1 µM; in experiment [3] (setting [12]), 1 to 10 µM. The MTAP intact/deleted ratio result in experiment [2] is listed as “A (an IC50 ratio greater than or equal to 10 fold)”.
For the molecule `Cc1cncc(NC(=O)C(=O)N2C[C@@H](C)CC[C@@H]2c2ccccc2)c1` (single isomer, unassigned) [Compound 2], the IC50 in experiment [1] (setting [7]) is over 1 µM; in experiment [2] (setting [8]), over 1 µM; in experiment [3] (setting [9]), over 10 µM.
In the case of `Cc1cncc(NC(=O)C(=O)N2[C@@H](c3ccccc3)CC[C@H](C)[C@H]2C)c1` (single isomer, unassigned) [Compound 32], the values for the IC50 in experiment [1] (setting [7]), in experiment [2] (setting [8]) and in experiment [3] (setting [9]) were over 1 µM, over 1 µM and over 10 µM, respectively.
Regarding `C[C@@H]1CC[C@H](c2ccccc2)N(C(=O)C(=O)Nc2cncc(C(N)=O)c2)C1` (single isomer, unassigned) [Compound 75], the IC50 in experiment [1] (setting [7]) and in experiment [2] (setting [8]) was over 1 µM in each case.
In the case of `C[C@@H]1CC[C@@H](c2ccc3c(c2)CC(=O)N3)N(C(=O)C(=O)Nc2cncc(C(N)=O)c2)C1` (single isomer, unassigned) [Compound 325], the IC50 in experiment [1] (setting [7]) and in experiment [2] (setting [8]) was over 1 µM throughout.
`Cc1cc(NC(=O)C(=O)N2C[C@@H](C)CC[C@@H]2c2ccncc2)cnc1N` (single isomer, unassigned) [Compound 609]: the IC50 in experiment [2] (setting [11]) is over 1 µM; at PRMT5 [4], over 0.5 µM; at PRMT5 [5], over 0.5 µM; on PRMT5 [6], over 0.5 µM; in experiment [3] (setting [12]), over 10 µM. Further, the MTAP intact/deleted ratio result in experiment [2] is on record as “C (an IC50 ratio of less than 3 fold)”.
In the case of `Cc1cncc(NC(=O)C(=O)N2CC(C)CCC2c2ccccc2)c1` (stereo not shown) [Compound 1, 2-(5-methyl-2-phenylpiperidin-1-yl)-N-(5-methylpyridin-3-yl)-2-oxoacetamide], the IC50 in experiment [1] (setting [7]) and in experiment [2] (setting [8]) was over 1 µM throughout.
Turning to `NC(=O)CC1CCC2CN(C(=O)C(=O)Nc3cncc(C(N)=O)c3)CCC2C1` (stereo not shown) [Compound 420, 5-{2-[6-(Carbamoylmethyl)-decahydroisoquinolin-2-yl]-2-oxoacetamido}pyridine-3-carboxamide], the IC50 at PRMT5 [4] is over 0.5 µM; on PRMT5 [5], over 0.5 µM; at PRMT5 [6], 0.05 to 0.5 µM; in experiment [3] (HAP1, viability assay, MTAP-deleted cell line, read-out: HAP1 MTAP deleted viability), over 10 µM.
